In patent US20080176957A1, “PRESERVATIVE COMPOSITIONS COMPRISING RENEWABLY-BASED, BIODEGRADABLE 1,3-PROPANEDIOL” (priority 2006, published 2008):
Like-named read-outs stand apart in the source and are kept apart here.

How the values were obtained:
[1] = Solubility of compounds and common preservatives in Bio-PDO and PG; type: physicochemical
From the text: Cosmetic preservative blends need a broad range of protection against gram positive and negative bacteria, yeasts and molds. In cosmetics, solubility is also important. Clear solutions are preferred to emulsions, suspensions or dispersions. […] Other preservatives or a mixture of preservatives can be used with Bio-PDO™, such as choloracetamide sodium benzoate, 5-bromo-5-nitro-1,3-dioxane, butyl paraben, ethyl paraben, isobutyl paraben, iodopropynyl butylcarbamate, and 2,4,4′-trichloro-2′-[…].

humans [2] = experiment: Human repeated patch test for irritation or delayed contact hypersensitivity (Example 2); type: in vivo; conditions: diluted with D.I. water to 5%, 25% and 50%, nine 24-hour induction patches and challenge
From the text: The purpose of this study was to determine the potential of biologically-derived 1,3-propanediol, diluted to concentrations of 5%, 25%, and 50%, to cause irritation or delayed contact hypersensitivity in humans. The method employed in carrying out this test, described below, was similar to that described in “Appraisal of the Safety of Chemicals in Foods, Drugs and Cosmetics” by […] and published by the Association of Food and Drug Officials of the United States, the entirety of which is incorporated herein by reference.
Test Panel: The test involved the application of the test article to the upper arms of a group of 112 volunteer panelists. The panelists ranged from 16 to 71 years of age. One hundred and five panelists completed the study. Prior to the initiation of the study, all panelists were in good general health and free of any visible skin disease or anomaly in the area to be patched. Each panelist was required to read, understand and sign an informed consent statement. […]

humans [3] = experiment: Second human study of irritation or delayed contact hypersensitivity, Bio-PDO vs PG (Example 3); type: in vivo
From the text: A second study to determine the potential of biologically-derived 1,3-propanediol and PG, diluted to concentrations of 25%, 50%, and 75% (pH 4, 7 and 9 tested) to cause irritation or delayed contact hypersensitivity in humans.

skin = conditions: background statement, Kinnunen et al. 1991; cited from earlier work

## OCCCCO [1,4-Butanediol]
[1]; 50 Wt % in Bio-PDO (Table 1)
  Solubility in Bio-PDO ™: Soluble
[1]; 50 Wt % in PG (Table 1)
  Solubility in PG: Soluble

## OCCCO [Bio-PDO™, 1,3-propanediol]
Humans [2]
  Skin irritation, fatiguing or sensitization: not to be a skin irritant, fatiguing agent, or sensitizing agent
Humans [3]; humans, 25, 50 and 75% at pH 7, or 75% at pH 4 and 9
  Dermal irritation or sensitization reactions: did not produce any clinically significant dermal irritation or sensitization reactions

## CCO [Ethanol]
[1]
  Solubility in Bio-PDO ™: Soluble
  Solubility in PG: Soluble

## OCC(O)CO [Glycerol]
[1]
  Solubility in Bio-PDO ™: Soluble
  Solubility in PG: Soluble

## CC(C)O [IPA]
[1]; 50 Wt % in Bio-PDO (Table 1)
  Solubility in Bio-PDO ™: Soluble
[1]; 50 Wt % in PG (Table 1)
  Solubility in PG: Soluble

## Oc1cc(Cl)ccc1Oc1ccc(Cl)cc1Cl [Irgasan]
[1]; 20 Wt % in Bio-PDO (Table 2)
  Solubility in Bio-PDO ™: Soluble
[1]; 20 Wt % in PG (Table 2)
  Solubility in PG: Soluble

## CC(O)CO (centres unmarked) [PG, propylene glycol, reference compound]
skin
  Skin irritation and sensitization: is a skin irritant and skin sensitizer
Humans [3]; in vivo, pH 7
  Dermal irritation: produced dermal irritation at all three concentrations

## O=C(O)c1ccccc1O [Salicyclic acid]
[1]; 10 Wt % in Bio-PDO (Table 2)
  Solubility in Bio-PDO ™: Soluble
[1]; 10 Wt % in PG (Table 2)
  Solubility in PG: Soluble
[1]; 15 Wt % in Bio-PDO (Table 2)
  Solubility in Bio-PDO ™: Soluble
[1]; 15 Wt % in PG (Table 2)
  Solubility in PG: Soluble
[1]; 20 Wt % in Bio-PDO (Table 2)
  Solubility in Bio-PDO ™: Not Soluble
[1]; 20 Wt % in PG (Table 2)
  Solubility in PG: Soluble
